Source: patent US20170071976A1, “PHARMACEUTICAL SOLUTION HAVING ANTI-TUMOR EFFECT-ENHANCING AND TOXICITY-REDUCING EFFECT, AND PHARMACEUTICAL COMPOSITION COMPRISING SAME” (priority 2014, published 2017)
Like-named read-outs stand apart in the source and are kept apart here. Marks after values point to notes of the source that are not given here.

How the values were obtained:
[1] = test system: xenograft tumors from human bladder cancer 5637 cells; settings: Thiotepa 0.2 mg/kg × 11, tail vein; for Inhibition (%): tumor weight
Source text: Inhibition of growth of xenograft tumors from human bladder cancer 5637 cells in nude mice by intravenous injection of deuterium oxide in combination with thiotepa
(§1) Animal: 6 to 7 week-aged female BALB/c nude mice, each weighing 18 to 20 g, provided by Shanghai SLAC Laboratory Animal Co. Ltd.
Cell lines: human bladder cancer 5637 cells were provided by NANJING KEYGEN BIOTECH. CO., LTD.
Test drugs: thiotepa and the sodium chloride deuterium oxide solution, prepared in Example 1.
(§2) Tumor cells were resuscitated and inoculated, and sterile sodium chloride physiological solution was added thereto to make a cell suspension which was subcutaneously inoculated into the upper right axillary fossa of animals. 5×10^6 tumor cells were inoculated into each animal.
The diameter of xenograft tumors in the nude mice was measured with a vernier caliper, and 10 days after inoculation, when tumors grew to 100 to 110 cm^3, the animals were randomized. Meanwhile drugs were administered by injection into tail vein, once every three days, for 21 successive days. The body weight of animals was also recorded to observe the toxicity of the test samples. 21 days after administration, the nude mice were sacrificed, and tumors were harvested by surgery, and weighed.
The test used 5 groups in total, with 5 animals per group.
1) Control group: sodium chloride physiological solution, 10 ml/kg; 2) Thiotepa positive control group: thiotepa (0.2 mg/kg) diluted in sodium chloride physiological solution; 3) Test group 1: thiotepa (0.2 mg/kg) diluted in the sodium chloride deuterium oxide solution (1 ml/kg); 4) Test group 2: thiotepa (0.2 mg/kg) diluted in the sodium chloride deuterium oxide solution (10 ml/kg); 5) Test group 3: thiotepa (0.2 mg/kg) diluted in the sodium chloride deuterium oxide solution (25 ml/kg).

[2] = test system: xenograft tumors from human colon cancer HCT-116 cells; assay: HCT-116 xenograft in nude mice, intravenous deuterium oxide in combination with 5-fluorouracil; assay type: in vivo, BALB/c nude mice
Experimental: Ltd. Cell lines: human colon cancer cells HCT-116 were provided by NANJING […] BIOTECH. CO., LTD. […] Bone marrow nucleated cells were isolated by a routine method, DNA was extracted from the cells, the OD value was measured in a UV-260 spectrometer as a representative of the DNA content, and inhibition of DNA synthesis by the test samples was observed. The test used 7 groups in total, with 8 animals per group. […] Tumor volume (TV) was calculated by the following equation: […] From the measurements, relative tumor volume (RTV) was calculated by the following equation: RTV=Vt/V0 Relative tumor growth ratio T/C (%) was calculated by the following equation: Criteria of efficacy evaluation: […] T/C %≦40% and statistically P<0.05, efficacious. Inhibition of tumor growth (%) was calculated by the following equation: Criteria of efficacy evaluation: […] The mean value was expressed in X±SD. Inter-group analysis was statistically performed with t test. The results were statistically analyzed using SPSS (Statistical Package for the Social Science) 17.0.

[3] = test system: xenograft tumors from human breast cancer MCF-7 cells; assay: MCF-7 xenograft in nude mice, intravenous deuterium oxide in combination with gemcitabine; assay type: in vivo, BALB/c nude mice; settings: Paclitaxel 8 mg/kg × 11, tail vein
Experimental: Ltd. Cell lines: human breast cancer MCF-7 cells were provided by NANJING […] BIOTECH. CO., LTD. […] Bone marrow nucleated cells were isolated by a routine method, DNA was extracted from the cells, the OD value was measured in a UV-260 spectrometer as a representative of the DNA content, and inhibition of DNA synthesis by the test samples was observed. The test used 7 groups in total, with 8 animals per group. […] Statistics: the same as Example 21.

[4] = test system: xenograft tumors from human ovarian cancer SKOV3 cells; assay: SKOV3 xenograft in nude mice, intravenous deuterium oxide in combination with paclitaxel; assay type: in vivo, BALB/c nude mice; settings: Paclitaxel 8 mg/kg × 11, tail vein
Source text: 3. […] 4. Statistics: the same as Example 21.

[5] = test system: xenograft tumors from human lung cancer A549 cells; assay: A549 xenograft in nude mice, intravenous deuterium oxide in combination with gemcitabine; settings: Paclitaxel 8 mg/kg × 11, tail vein; for Tumor weight: control 2.92 ± 0.27; for Inhibition (%): tumor weight
Experimental: as §1
Test drugs: gemcitabine (GEM) and the sodium chloride deuterium oxide solution prepared in Example 1.
as §2
The diameter of xenograft tumors in the nude mice was measured with a vernier caliper, and 10 days after inoculation, when tumors grew to 100 to 110 cm^3, the animals were randomized with 8 mice per group. Meanwhile drugs were administered by injection into tail vein, once every three days, for 21 successive days. By measuring the tumor diameter, the anti-tumor efficacy of test samples was dynamically observed. Meanwhile the body weight of animals was also recorded to observe the toxicity of the test samples. 21 days after administration, the nude mice were sacrificed, and tumors were harvested by surgery, weighed and photographed.
6) Test group 2: gemcitabine (10 mg/kg) diluted in the sodium chloride deuterium oxide solution (10 ml/kg). 7) Test group 3: gemcitabine (10 ml/kg) diluted in the sodium chloride deuterium oxide solution (20 ml/kg).

[6] = test system: liver cancer H22 ascites tumor; assay: Liver cancer H22 ascites tumor mice, intraperitoneal retention lavage with deuterium oxide and cisplatin (room temperature or 42±1° C.); assay type: in vivo, Kunming mice; settings: cisplatin 0.6 mg/kg + Ringer's solution
Experimental: Animal: 4 to 5 week-aged male Kunming mice, provided by Shanghai SIPPR-BK Laboratory Animal Co. Ltd. Cell lines: […] CO., LTD. […] Test drugs: cisplatin, and the Ringer's deuterium oxide solution as prepared in Example 6. Grouping and dosing: the mouse model was established 7 to 8 days after inoculation, and the mice were randomized with 18 animals/group. Cisplatin were dissolved in a 42±1° C. Ringer's deuterium oxide solution, and used to lavage the peritoneal cavity of the tumor-bearing mice. 1). Blank control group (normal Ringer's solution, 10 ml/kg, room temperature); 2). Normal chemo group (cisplatin 0.6 mg/kg+normal Ringer's solution, 10 ml/kg, room temperature); 3). […] Room temperature high-dose deuterium oxide+cisplatin group (Ringer's deuterium oxide solution, 40 ml/kg+cisplatin 0.6 mg/kg); 6). Hyperthermic low-dose deuterium oxide+cisplatin group (42±1° C. […] Hyperthermic mid-dose deuterium oxide+cisplatin group (42±1° C. […] Hyperthermic high-dose deuterium oxide+cisplatin group (42±1° C. Ringer's deuterium oxide solution, 40 ml/kg+cisplatin 0.6 mg/kg); […] The lavage was performed once another day for 5 successive times. […] 4. […] Statistics: the same as Example 18.

[7] = test system: sarcoma S180 (ascites type); assay: Sarcoma S180 (ascites type) mice, 42±1° C. intraperitoneal retention lavage with deuterium oxide, oxaliplatin and mitomycin; assay type: in vivo, Kunming mice; settings: oxaliplatin 0.8 mg/kg + glucose injection 5 ml/kg
Experimental: Inhibition of sarcoma S180 (ascites type) in tumor-bearing mice by 42±1° C. hyperthermic intraperitoneal retention lavage using deuterium oxide in combination with oxaliplatin and using deuterium oxide in combination with oxaliplatin and mitomycin.
Cell lines: sarcoma S180 (ascites type) cell line was provided by NANJING KEYGEN BIOTECH. CO., LTD.
Modeling: 0.2 ml suspension of sarcoma S180 cells containing 1×10^7 cells/ml was inoculated into the peritoneal cavity of mice.
Test drugs: oxaliplatin, mitomycin, and the glucose deuterium oxide solution as prepared in Example 2.
Grouping and dosing: the mouse model was established 7 to 8 days after inoculation, and the mice were randomized with 12 animals/group.
Oxaliplatin and mitomycin were dissolved in a 42±1° C. glucose deuterium oxide solution, and used to lavage the peritoneal cavity of the tumor-bearing mice.
Blank control group (5% glucose injection, 5 ml/kg); 2). Chemo group (oxaliplatin 0.8 mg/kg+5% glucose injection, 5 ml/kg); 3). Low-dose deuterium oxide+oxaliplatin group (5% glucose deuterium oxide solution, 5 ml/kg+oxaliplatin 0.8 mg/kg); 4). Mid-dose deuterium oxide+oxaliplatin group (5% glucose deuterium oxide solution, 20 ml/kg+oxaliplatin 0.8 mg/kg); 5). High-dose deuterium oxide+oxaliplatin group (5% glucose deuterium oxide solution, 40 ml/kg+oxaliplatin 0.8 mg/kg); 6). Low-dose deuterium oxide+oxaliplatin+mitomycin group (42±1° C. 5% glucose deuterium oxide solution, 5 ml/kg+oxaliplatin 0.8 mg/kg+mitomycin 0.4 mg/kg); 7). […]
The peritoneal cavity was lavaged with the 42±1° C. glucose deuterium oxide solution in combination with the above composition, which were retained for 10 min in the peritoneal cavity after being introduced, which was repeated for 3 times. […] 24 hours after the administration of drugs was completed (on day 11), 4 mice from each group were sacrificed, the volume of ascitic fluid was measured, and bodies of the mice were dissected to observe the peritoneal organs and metastasis to lung. […]

S=P(N1CC1)(N1CC1)N1CC1 [Thiotepa, thiotepa]
Body weight (g) Initial [1]: 20.6 g | Tumor weight ([1]; control 2.87 ± 1.11): 1.75 ± 1.06 g | Body weight (g) End, given as change ([1]; control +3.1): +2.6 g | Inhibition (%) [1]: 39.0% | Inhibition (%) ([1]; listed as thiotepa): 39%

CC(=O)O[C@H]1C(=O)[C@@]2(C)[C@H]([C@H](OC(=O)c3ccccc3)[C@]3(O)C[C@H](OC(=O)[C@H](O)[C@@H](NC(=O)c4ccccc4)c4ccccc4)C(C)=C1C3(C)C)[C@]1(OC(C)=O)CO[C@@H]1C[C@@H]2O [Paclitaxel, paclitaxel]
Body weight (g) Initial ([2]; Paclitaxel 8 mg/kg × 11, tail vein): 18.4 g | Bone marrow DNA content (OD) ([2]; Paclitaxel 8 mg/kg × 11, tail vein, control 0.950 ± 0.2711): 0.841 ± 0.3014 OD | Tumor weight ([2]; Paclitaxel 8 mg/kg × 11, tail vein, control 2.92 ± 0.27): 0.94 ± 0.25 g | Body weight (g) End, given as change ([2]; Paclitaxel 8 mg/kg × 11, tail vein, control +0.4): -1.2 g | Body weight (g) Initial ([2]; Paclitaxel 8 mg/kg × 11, tail vein, listed as paclitaxel): 18.4 ± 0.5 g | body weight at end ([2]; high-dose paclitaxel positive control): 16.8 ± 0.9 g | Inhibition (%) ([2]; tumor weight, Paclitaxel 8 mg/kg × 11, tail vein): 67.80%* | Body weight (g) Initial [3]: 18.3 g | Bone marrow DNA content (OD) ([3]; control 0.931 ± 0.2011): 0.881 ± 0.2502 OD | Tumor weight ([3]; control 4.07 ± 0.76): 1.59 ± 0.40 g | Body weight (g) End, given as change ([3]; control +3.3): +1.0 g | Inhibition (%) ([3]; tumor weight): 60.93%* | Tumor weight ([4]; control 3.22 ± 1.59): 2.07 ± 1.06 g | Body weight (g) End, given as change ([4]; control +4.0): +2.8 g | Inhibition (%) ([4]; tumor weight): 35.7% | Body weight (g) Initial [5]: 18.4 g | Tumor weight [5]: 0.94 ± 0.25 g | Tumor weight ([5]; listed as paclitaxel): 0.94 ± 0.25 g | Body weight (g) End, given as change ([5]; control +1.4): +0.9 g | Inhibition (%) [5]: 67.97* % | Inhibition (%) ([5]; listed as paclitaxel): 67.97%

N.N.[Cl][Pt][Cl] [cisplatin]
T/C(%) ([6]; room temperature, i.p. lavage x 5): 137.1% | MST ([6]; room temperature, i.p. lavage x 5, control 13.2 ± 1.9): 18.1 ± 3.2 days | Ascitic fluid ([6]; day 11, RT, control 14.85 ± 2.56): 7.30 ± 2.32 mL

O=C1[O][Pt]2([NH][C@@H]3CCCC[C@H]3[NH]2)[O]C1=O [oxaliplatin]
Ascitic fluid ([7]; day 11, control 16.5 ± 4.3): 8.7 ± 1.9 mL | T/C(%) ([7]; i.p. lavage x 5): 177.6% | MST ([7]; i.p. lavage x 5, control 12.2 ± 3.0): 21.7 ± 2.8 days
